From ChEMBL document CHEMBL4840344, “Discovery of 1,8-naphthalidine derivatives as potent anti-hepatic fibrosis agents via repressing PI3K/AKT/Smad and JAK2/STAT3 pathways” (Bioorg Med Chem, 2021)
Calls of active or inactive are those of the source. The calls are words filed in the database; no cut-off is given here.

Assays:
COL1A1 promoter [1] = assay: Inhibition of COL1A1 promotor activity in human LX2 cells at 20 uM incubated for 24 hrs by luciferase reporter gene assay; assay type: cell-based
COL1A1 promoter [2] = assay: Inhibition of COL1A1 promotor activity in human LX2 cells at 50 uM incubated for 24 hrs by luciferase reporter gene assay; assay type: cell-based
[3] = Cytotoxicity against human LX2 cells assessed as cell death incubated for 24 hrs by MTT assay; assay type: cell-based, LX-2

SMILES | inhibition (COL1A1 promoter [1]) | inhibition (COL1A1 promoter [2]) | CC50 at 24 h [3] [µM]
CN1CC[N+](C)(CCCCCCCOc2ccc(-n3cc(C(=O)Nc4cc(F)cc(F)c4)c(=O)c4ccc(N(C)C)nc43)c(F)c2)CC1 | inactive |  | 
CN(C)c1ccc2c(=O)c(C(=O)Nc3cc(F)cc(F)c3)cn(-c3ccc(OCCCCCCC[N+]4(C)CCCCC4)cc3Cl)c2n1 | inactive | inactive | < 20
Cc1ccc(-n2cc(C(=O)Nc3cc(F)cc(F)c3)c(=O)c3ccc(N(C)C)nc32)cc1OCCCCCCC[N+]1(C)CCCCC1 | 23.4% | 45.1% | 
CN1CC[N+](C)(CCCCCCCOc2ccc(-n3cc(C(=O)Nc4cc(F)cc(F)c4)c(=O)c4ccc(N(C)C)nc43)c(Cl)c2)CC1 | inactive | inactive | < 20
CN(C)c1ccc2c(=O)c(C(=O)Nc3cc(F)cc(F)c3)cn(-c3ccc(OCCCCCCC[n+]4ccccc4)cc3F)c2n1 | 15.4% | inactive | < 20
Cc1ccc(-n2cc(C(=O)Nc3cc(F)cc(F)c3)c(=O)c3ccc(N(C)C)nc32)cc1OCCCCCCC[N+]12CCN(CC1)CC2 | 5.07% | 9.71% | 
CC[N+]1(CCCCCCCOc2ccc(-n3cc(C(=O)Nc4cc(F)cc(F)c4)c(=O)c4ccc(N(C)C)nc43)cc2Cl)CCCCC1 | 14.3% | 50.4% | 
CN(C)c1ccc2c(=O)c(C(=O)Nc3cc(F)cc(F)c3)cn(-c3ccc(OCCCCCCC[n+]4ccccc4)cc3Cl)c2n1 | inactive | inactive | 
Cc1cc(OCCCCCCC[N+]2(C)CCN(C)CC2)cc(-n2cc(C(=O)Nc3cc(F)cc(F)c3)c(=O)c3ccc(N(C)C)nc32)c1 | 2.8% | 38.2% | 
CN(C)c1ccc2c(=O)c(C(=O)Nc3cc(F)cc(F)c3)cn(-c3ccc(OCCCCCCC[N+]4(C)CCCC4)cc3F)c2n1 | inactive | inactive | < 20
CC[N+]1(CCCCCCCOc2cc(C)cc(-n3cc(C(=O)Nc4cc(F)cc(F)c4)c(=O)c4ccc(N(C)C)nc43)c2)CCCC1 | 35.1% | 73.2% | 
Cc1cc(OCCCCCCC[N+](C)(C)C2CCCCC2)cc(-n2cc(C(=O)Nc3cc(F)cc(F)c3)c(=O)c3ccc(N(C)C)nc32)c1 | 52.5% | 89.1% | 61.8
Cc1cc(OCCCCCCC[N+]2(C)CCN(C)CC2)ccc1-n1cc(C(=O)Nc2cc(F)cc(F)c2)c(=O)c2ccc(N(C)C)nc21 | inactive | inactive | < 20
CC[N+]1(CCCCCCCOc2ccc(-n3cc(C(=O)Nc4cc(F)cc(F)c4)c(=O)c4ccc(N(C)C)nc43)c(Cl)c2)CCCC1 | inactive | inactive | < 20
CN(C)c1ccc2c(=O)c(C(=O)Nc3cc(F)cc(F)c3)cn(-c3ccc(OCCCCCCC[N+]4(C)CCCC4)c(Cl)c3)c2n1 |  | 2.59% | 
CN(C)c1ccc2c(=O)c(C(=O)Nc3cc(F)cc(F)c3)cn(-c3ccc(OCCCCCCC[N+]45CCN(CC4)CC5)c(Cl)c3)c2n1 |  | 20.4% | 
CN1CC[N+](C)(CCCCCCCOc2ccc(-n3cc(C(=O)Nc4cc(F)cc(F)c4)c(=O)c4ccc(N(C)C)nc43)cc2Cl)CC1 |  | 15.4% | 
CN(C)c1ccc2c(=O)c(C(=O)Nc3cc(F)cc(F)c3)cn(-c3ccc(Cl)c(OCCCCCCC[N+]45CCN(CC4)CC5)c3)c2n1 | 8.08% | 18.7% | 
Cc1cc(-n2cc(C(=O)Nc3cc(F)cc(F)c3)c(=O)c3ccc(N(C)C)nc32)ccc1OCCCCCCC[N+]1(C)CCCC1 | 26.1% | 35.9% | 
Cc1cc(-n2cc(C(=O)Nc3cc(F)cc(F)c3)c(=O)c3ccc(N(C)C)nc32)ccc1OCCCCCCC[N+]1(C)CCN(C)CC1 | 16.2% | 32% | 
CN(C)c1ccc2c(=O)c(C(=O)Nc3cc(F)cc(F)c3)cn(-c3ccc(OCCCCCCC[n+]4ccccc4)c(Cl)c3)c2n1 |  | 21.4% | 
CN1CC[N+](C)(CCCCCCCOc2cc(-n3cc(C(=O)Nc4cc(F)cc(F)c4)c(=O)c4ccc(N(C)C)nc43)ccc2Cl)CC1 | 27.5% | 45.2% | 
CC[N+]1(CCCCCCCOc2ccc(-n3cc(C(=O)Nc4cc(F)cc(F)c4)c(=O)c4ccc(N(C)C)nc43)c(F)c2)CCCCC1 | inactive | inactive | < 20
CN(C)c1ccc2c(=O)c(C(=O)Nc3cc(F)cc(F)c3)cn(-c3ccc(OCCCCCCC[N+](C)(C)C4CCCCC4)cc3Cl)c2n1 | inactive | inactive | 
Cc1cc(OCCCCCCC[N+](C)(C)C2CCCCC2)ccc1-n1cc(C(=O)Nc2cc(F)cc(F)c2)c(=O)c2ccc(N(C)C)nc21 | inactive | inactive | 
CN(C)c1ccc2c(=O)c(C(=O)Nc3cc(F)cc(F)c3)cn(-c3ccc(OCCCCCCC[N+]4(C)CCCCC4)cc3F)c2n1 | inactive | inactive | < 20
Cc1cc(OCCCCCCC[n+]2ccccc2)ccc1-n1cc(C(=O)Nc2cc(F)cc(F)c2)c(=O)c2ccc(N(C)C)nc21 | inactive | inactive | 

SMILES | inhibition (COL1A1 promoter [1]) | inhibition (COL1A1 promoter [2]) | CC50 at 24 h [3] [µM]
CC[N+]1(CCCCCCCOc2ccc(-n3cc(C(=O)Nc4cc(F)cc(F)c4)c(=O)c4ccc(N(C)C)nc43)cc2Cl)CCCC1 |  | 23.5% | 
Cc1cc(OCCCCCCC[N+]2(C)CCCC2)ccc1-n1cc(C(=O)Nc2cc(F)cc(F)c2)c(=O)c2ccc(N(C)C)nc21 | inactive | inactive | < 20
CN(C)c1ccc2c(=O)c(C(=O)Nc3cc(F)cc(F)c3)cn(-c3ccc(Cl)c(OCCCCCCC[N+]4(C)CCCCC4)c3)c2n1 | 57.3% | 90.5% | 72.6
CN(C)c1ccc2c(=O)c(C(=O)Nc3cc(F)cc(F)c3)cn(-c3ccc(Cl)c(OCCCCCCC[N+]4(C)CCCC4)c3)c2n1 | 51% | 76.1% | 54.5
CN(C)c1ccc2c(=O)c(C(=O)Nc3cc(F)cc(F)c3)cn(-c3ccc(OCCCCCCC[N+](C)(C)C4CCCCC4)cc3F)c2n1 | inactive | inactive | 
Cc1ccc(-n2cc(C(=O)Nc3cc(F)cc(F)c3)c(=O)c3ccc(N(C)C)nc32)cc1OCCCCCCC[N+]1(C)CCCC1 | 12.7% | 55.9% | 
CC[N+]1(CCCCCCCOc2cc(-n3cc(C(=O)Nc4cc(F)cc(F)c4)c(=O)c4ccc(N(C)C)nc43)ccc2Cl)CCCCC1 | inactive | inactive | 
CN(C)c1ccc2c(=O)c(C(=O)Nc3cc(F)cc(F)c3)cn(-c3ccc(OCCCCCCC[N+]45CCN(CC4)CC5)cc3Cl)c2n1 | 40.1% | 80% | 76.9
O=C(O[C@@H]1Cc2c(O)cc(O)cc2O[C@@H]1c1cc(O)c(O)c(O)c1)c1cc(O)c(O)c(O)c1 [EPIGALOCATECHIN GALLATE] | 19.2% | 32.2% | > 100
Cc1ccc(-n2cc(C(=O)Nc3cc(F)cc(F)c3)c(=O)c3ccc(N(C)C)nc32)cc1OCCCCCCC[n+]1ccccc1 | 39.7% | 22.2% | 
Cc1ccc(-n2cc(C(=O)Nc3cc(F)cc(F)c3)c(=O)c3ccc(N(C)C)nc32)cc1OCCCCCCC[N+]1(C)CCN(C)CC1 | 10.3% | 25% | 
CN(C)c1ccc2c(=O)c(C(=O)Nc3cc(F)cc(F)c3)cn(-c3ccc(OCCCCCCC[N+]4(C)CCCCC4)c(Cl)c3)c2n1 |  | inactive | 
CC[N+]1(CCCCCCCOc2ccc(-n3cc(C(=O)Nc4cc(F)cc(F)c4)c(=O)c4ccc(N(C)C)nc43)c(F)c2)CCCC1 | inactive | inactive | < 20
Cc1cc(OCCCCCCC[N+]2(C)CCCCC2)ccc1-n1cc(C(=O)Nc2cc(F)cc(F)c2)c(=O)c2ccc(N(C)C)nc21 | inactive | inactive | < 20
Cc1cc(OCCCCCCC[N+]23CCN(CC2)CC3)cc(-n2cc(C(=O)Nc3cc(F)cc(F)c3)c(=O)c3ccc(N(C)C)nc32)c1 | 10.3% | 5.52% | 
CC[N+]1(CCCCCCCOc2cc(-n3cc(C(=O)Nc4cc(F)cc(F)c4)c(=O)c4ccc(N(C)C)nc43)ccc2Cl)CCCC1 | 46% | 96.4% | 61.3
CN(C)c1ccc2c(=O)c(C(=O)Nc3cc(F)cc(F)c3)cn(-c3ccc(OCCCCCCC[N+]4(C)CCCC4)cc3Cl)c2n1 | inactive | inactive | < 20
CC[N+]1(CCCCCCCOc2ccc(-n3cc(C(=O)Nc4cc(F)cc(F)c4)c(=O)c4ccc(N(C)C)nc43)cc2C)CCCCC1 | 19.7% | 53.4% | 
Cc1cc(-n2cc(C(=O)Nc3cc(F)cc(F)c3)c(=O)c3ccc(N(C)C)nc32)ccc1OCCCCCCC[N+]12CCN(CC1)CC2 | 10.6% | 20.8% | 
Cc1ccc(-n2cc(C(=O)Nc3cc(F)cc(F)c3)c(=O)c3ccc(N(C)C)nc32)cc1OCCCCCCC[N+](C)(C)C1CCCCC1 | 32.3% | 61.7% | 
CC[N+]1(CCCCCCCOc2ccc(-n3cc(C(=O)Nc4cc(F)cc(F)c4)c(=O)c4ccc(N(C)C)nc43)c(C)c2)CCCCC1 | inactive | inactive | < 20
Cc1cc(OCCCCCCC[N+]2(C)CCCC2)cc(-n2cc(C(=O)Nc3cc(F)cc(F)c3)c(=O)c3ccc(N(C)C)nc32)c1 | 4.32% | 35.4% | 
Cc1cc(-n2cc(C(=O)Nc3cc(F)cc(F)c3)c(=O)c3ccc(N(C)C)nc32)ccc1OCCCCCCC[n+]1ccccc1 | inactive | 55% | 
Cc1cc(OCCCCCCC[n+]2ccccc2)cc(-n2cc(C(=O)Nc3cc(F)cc(F)c3)c(=O)c3ccc(N(C)C)nc32)c1 | 7.7% | 61% | 
CN(C)c1ccc2c(=O)c(C(=O)Nc3cc(F)cc(F)c3)cn(-c3ccc(OCCCCCCC[N+]45CCN(CC4)CC5)cc3F)c2n1 | 9.02% | 42.4% | 
Cc1cc(-n2cc(C(=O)Nc3cc(F)cc(F)c3)c(=O)c3ccc(N(C)C)nc32)ccc1OCCCCCCC[N+]1(C)CCCCC1 | 33% | 54.4% | 
